Laboratory results published in patent publication US20120142645A1, “NEUROACTIVE STEROID COMPOSITIONS AND METHODS OF USE FOR LOWERING CHOLESTEROL” (priority 2009, published 2012).

Tested on: patients with schizophrenia or schizoaffective disorder
Assay: BACS cognitive battery; same 8-week adjunctive pregnenolone trial
Format: in vivo, human
Details: for BACS Composite Z-score / BACS Digit Sequencing raw score / BACS Symbol Coding raw score / BACS Token Motor raw score / BACS Tower of London raw score / BACS Verbal Fluency raw score / BACS Verbal Memory raw score: mean, n = 9; for BACS Composite, difference PG vs placebo in Z-score change: not statistically significant (p=0.22)
Method: Study Design and Subjects. Disclosed herein is a placebo-controlled, double-blind, parallel group, randomized trial of adjunctive pregnenolone for the treatment of cognitive and negative symptoms in patients with schizophrenia or schizoaffective disorder. […] Patients received a total of 6 study visits, which took place every two weeks. […] The trial was conducted at a single site, the Durham Veterans Affairs Medical Center in Durham, N.C. The protocol was approved by the local institutional review board and conducted under FDA Investigational New Drug (IND) #71,768. The ClinicalTrials.gov number for this study is NCT00560937.
Cognitive symptoms were assessed by the Brief Assessment of Cognition in Schizophrenia (BAGS; Keefe et al., 2004; Keefe et al., 2008), and the MATRICS Consensus Cognitive Battery (Nuechterlein & Green, 2006; Nuechterlein et al., 2008). It is believed that no clinical trial to date has reported both of these cognitive assessments within the same study. The BAGS and MATRICS batteries were administered two weeks following the screening visit (following the completion of the two-week placebo lead-in phase at Visit 2), and at two 4-week intervals thereafter (at midpoint following randomization at Visit 4 and at the final visit (Visit 6).
The BAGS cognitive battery utilizes the following assessments in the respective targeted domains (Keefe et al., 2004; Keefe et al., 2008): list learning (verbal memory), digit sequencing task (working memory), token motor task (motor speed), verbal fluency (processing speed), symbol coding (attention and processing speed), and the Tower of London test (executive functions/reasoning and problem solving). The MATRICS cognitive battery utilizes the following assessments: Trail Making Test, Part A and the symbol coding subtest of the BAGS (both assess speed of processing), the Hopkins Verbal Learning Test-Revised, immediate recall (three learning trials only) [verbal learning], the Wechsler Memory Scale, 3rd ed., spatial span subtest (working memory, nonverbal), the Letter-Number Span test (working memory, verbal), the Neuropsychological Assessment Battery, mazes subtest (reasoning and problem solving), the Brief Visuospatial Memory Test-Revised (visual learning), the Category Fluency Test (animal naming) [speed of processing], the Mayer-Salovey-Caruso Emotional Intelligence Test, managing emotions branch (social cognition), and the Continuous Performance Test, Identical Pairs version (attention/vigilance) Of note, the symbol coding subtest of the BAGS was administered only once per visit at Visits 2, 4, and 6, although it is a component of both the BAGS and MATRICS cognitive batteries, in order to avoid potentially confounding practice effects.

[1] = Week 0 to Week 8, listed as pregnenolone

Q: For `CC(=O)[C@H]1CC[C@H]2[C@@H]3CC=C4C[C@@H](O)CC[C@]4(C)[C@H]3CC[C@]12C` [PG, pregnenolone], which “BACS Composite Z-score” value (Week 0 (baseline)) is on record?
A: −1.54

Q: And the “BACS Digit Sequencing raw score” value (Week 0 (baseline))?
A: 15.78

Q: What about the “BACS Symbol Coding raw score” value (Week 0 (baseline)) of the same molecule?
A: 36.89

Q: What about the “BACS Token Motor raw score” value (Week 0 (baseline)) of the same molecule?
A: 46.44

Q: And the “BACS Tower of London raw score” value (Week 0 (baseline))?
A: 13.22

Q: And the “BACS Verbal Fluency raw score” value (Week 0 (baseline))?
A: 45.78

Q: What about the “BACS Verbal Memory raw score” value (Week 0 (baseline)) of the same molecule?
A: 36.78

Q: And the “BACS Composite, change in Z-score” value (Week 0 to Week 8)?
A: 0.60

Q: And the “BACS Digit Sequencing, change in Z-score” value (Week 0 to Week 8)?
A: 0.50

Q: And the “BACS Digit Sequencing, difference PG vs placebo in Z-score change” value (Week 0 to Week 8)?
A: 0.25 ± 0.29

Q: What about the “BACS Symbol Coding, change in Z-score” value (Week 0 to Week 8) of the same molecule?
A: 0.11

Q: And the “BACS Symbol Coding, difference PG vs placebo in Z-score change” value (Week 0 to Week 8)?
A: −0.16 ± 0.24

Q: And the “BACS Token Motor, change in Z-score” value (Week 0 to Week 8)?
A: 0.40

Q: And the “BACS Token Motor, difference PG vs placebo in Z-score change” value (Week 0 to Week 8)?
A: 0.42 ± 0.66

Q: And the “BACS Tower of London, change in Z-score” value (Week 0 to Week 8)?
A: 0.82±

Q: And the “BACS Tower of London, difference PG vs placebo in Z-score change” value (Week 0 to Week 8)?
A: 0.61 ± 0.80

Q: What about the “BACS Verbal Fluency, change in Z-score” value (Week 0 to Week 8) of the same molecule?
A: −0.05

Q: What about the “BACS Verbal Fluency, difference PG vs placebo in Z-score change” value (Week 0 to Week 8) of the same molecule?
A: −0.06 ± 0.32

Q: And the “BACS Verbal Memory, change in Z-score” value (Week 0 to Week 8)?
A: 0.83

Q: And the “BACS Verbal Memory, difference PG vs placebo in Z-score change” value (Week 0 to Week 8)?
A: 0.61 ± 0.38

Q: What about the “BACS Composite, change in Z-score” value [1] of the same molecule?
A: 0.60±0.78

Q: And the “BACS Digit Sequencing, difference PG vs placebo in Z-score change” value [1]?
A: 0.25

Q: What about the “BACS Token Motor, difference PG vs placebo in Z-score change” value [1] of the same molecule?
A: 0.42

Q: What about the “BACS Tower of London, difference PG vs placebo in Z-score change” value [1] of the same molecule?
A: 0.61

Q: And the “BACS Verbal Memory, difference PG vs placebo in Z-score change” value [1]?
A: 0.61

Q: What about the “BACS Composite, difference PG vs placebo in Z-score change” value (Week 0 to Week 8) of the same molecule?
A: 0.38 ± 0.30

Q: What about the “BACS Composite, difference PG vs placebo in Z-score change” value [1] of the same molecule?
A: approximately 0.4

Q: And the “BACS Composite Z-score” value (Week 4)?
A: −1.04

Q: What about the “BACS Digit Sequencing raw score” value (Week 4) of the same molecule?
A: 17.22

Q: And the “BACS Symbol Coding raw score” value (Week 4)?
A: 44.78

Q: And the “BACS Token Motor raw score” value (Week 4)?
A: 55.56

Q: And the “BACS Tower of London raw score” value (Week 4)?
A: 15.22

Q: What about the “BACS Verbal Fluency raw score” value (Week 4) of the same molecule?
A: 45.11

Q: And the “BACS Verbal Memory raw score” value (Week 4)?
A: 39.00

Q: What about the “BACS Composite Z-score” value (Week 8) of the same molecule?
A: −0.93

Q: And the “BACS Digit Sequencing raw score” value (Week 8)?
A: 18.44

Q: What about the “BACS Symbol Coding raw score” value (Week 8) of the same molecule?
A: 38.67

Q: And the “BACS Token Motor raw score” value (Week 8)?
A: 52.22

Q: And the “BACS Tower of London raw score” value (Week 8)?
A: 16.22

Q: And the “BACS Verbal Fluency raw score” value (Week 8)?
A: 45.22

Q: What about the “BACS Verbal Memory raw score” value (Week 8) of the same molecule?
A: 43.78
